Results taken from BigSolDB 2.1.

C1=Cc2ccccc2Nc2ccccc21
solubility (mole fraction)
Conditions	278.15 K	283.15 K	288.15 K	293.15 K	298.15 K	303.15 K	308.15 K	313.15 K	318.15 K	323.15 K
in 1,4-dioxane	–	–	0.0312	0.0349	0.0392	0.0423	0.0481	0.052	0.058	0.0632
in DMAc	0.113	0.122	0.13	0.139	0.149	0.159	0.17	0.179	0.192	0.203
in DMF	0.109	0.116	0.122	0.129	0.136	0.144	0.153	0.161	0.169	0.178
in NMP	0.219	0.223	0.23	0.239	0.246	0.251	0.257	0.265	0.273	0.281
in acetone	0.0162	0.0178	0.0197	0.0219	0.0242	0.0268	0.0296	0.0327	0.0363	0.04
in acetonitrile	0.00245	0.00298	0.00345	0.00412	0.00489	0.00575	0.00676	0.00782	0.00933	0.0108
in ethyl acetate	0.01	0.0116	0.0133	0.015	0.0172	0.0193	0.0214	0.0243	0.0271	0.03
in isobutyl acetate	0.0105	0.0119	0.0132	0.0146	0.0161	0.0184	0.0206	0.023	0.0257	0.0285
in isopropyl acetate	0.00918	0.0104	0.0118	0.0133	0.0152	0.0168	0.0181	0.0202	0.0222	0.0249
in methyl acetate	0.00825	0.0092	0.0102	0.0118	0.0132	0.015	0.017	0.0192	0.0215	0.0239
in n-butyl acetate	0.0133	0.0152	0.0171	0.0189	0.0208	0.0236	0.0261	0.0289	0.0321	0.0362
in n-propyl acetate	0.0126	0.0143	0.0157	0.0175	0.0194	0.0215	0.0239	0.0267	0.0299	0.0331
